Laboratory results reported in US20240390438A1, “PROBIOTICS SEPARATED FROM RABBIT FECES AND FOOD CONTAINING PROBIOTICS” (AGENT Innovation Co., Ltd., priority 2021, published 2024).
≈ marks a conversion by molar mass, not a printed value.

How the values were obtained:
Bacillus cereus [1] = experiment: Agar diffusion method-2 (cell-free solution); type: cell-based; details: colonies as cell-free solution in holes of TSA; ddH2O control 8
Experimental: (§1) Firstly, the CFSs (containing metabolites) were prepared. Besides, when probiotics break down fiber and convert the fiber into metabolites, the metabolites are postbiotics.
(§2) Next, the pathogenic bacteria described above were also cultured with 37° C. until the concentration thereof reached 1×10^8 CFU/mL, respectively. 100 μL bacterial solutions of the pathogenic bacteria described above were evenly plated on Tryptone Soy Agar (TSA) and stay for 10 minutes. Then, tips were used to form several holes in the TSA. Subsequently, 100 μL bacterial solutions of the colonies described above were added into the holes and then cultured at 37° C. for 12 hours.
(§3) This experiment is designed that the CFSs in the holes prevent the pathogenic bacteria on the plates from growing. Therefore, the larger zone indicates the better antibacterial effect.

Escherichia coli (ETEC) [2] = experiment: Agar diffusion method-2 (cell-free solution); type: cell-based; details: colonies as cell-free solution in holes of TSA; ddH2O control 8
Experimental: as §1, §2, §3

Klebsiella pneumoniae [3] = experiment: Agar diffusion method-2 (cell-free solution); type: cell-based; details: colonies as cell-free solution in holes of TSA; ddH2O control 8
Experimental: as §1, §2, §3

Pseudomonas aeruginosa [4] = experiment: Agar diffusion method-2 (cell-free solution); type: cell-based; details: colonies as cell-free solution in holes of TSA; ddH2O control 8
Experimental: as §1, §2, §3

Salmonella enterica = experiment: Agar diffusion method-2 (cell-free solution); type: cell-based; details: colonies as cell-free solution in holes of TSA; ddH2O control 8
Experimental: as §1, §2, §3

Shigella sonnei [5] = experiment: Agar diffusion method-2 (cell-free solution); type: cell-based; details: colonies as cell-free solution in holes of TSA; ddH2O control 8
Experimental: as §1, §2, §3

Streptococcus pneumoniae [6] = experiment: Agar diffusion method-2 (cell-free solution); type: cell-based; details: colonies as cell-free solution in holes of TSA; ddH2O control 8
Experimental: as §1, §2, §3

Shigella sonnei [7] = experiment: Minimum inhibitory concentration and minimum bacterial concentration; type: cell-based; details: antibiotics; for MIC: 37 C 24 h, OD600; for MBC: plated on nutrient agar 48-72 h
Experimental: (§4) Minimum inhibitory concentration (MIC) refers to the minimum concentration at which the development of bacteria can be blocked and antibacterial resistance can be observed after cultured. The lower MIC means the better effect on bacteria.
(§5) The supernatants of the cultured colonies described above were collected, as cell-free solutions (CFSs), by centrifuge at 5000 rpm after cultured the colonies in a nutrient broth and shaking at 37° C. for 48 hours.
(§6) Next, 100 μL each of the CFSs and 100 μL bacterial solutions of the pathogenic bacteria were respectively added to each well of a 96-well plate. Thus, the total volume in each well was 200 μL. The tested pathogenic bacteria included Salmonella enterica, Shigella sonnei, Klebsiella pneumoniae, Streptococcus pneumoniae, Bacillus cereus, Staphylococcus aureus, Pseudomonas aeruginosa, and Escherichia coli.
(§7) As well, 100 μL each of the nutrient broth containing Ampicillin or Kanamycin and 100 μL bacterial solutions of the pathogenic bacteria were respectively added to each well of a 96-well plate. Thus, the total volume in each well was 200 μL.
(§8) Then, initial values of OD600 in each well were recorded. Subsequently, the 96-well plates were cultured at 37° C. for 24 hours, and the OD600 values thereof were re-recorded for determining the MICs of each colony described above.
(§9) Finally, 100 μL CFSs of the next three concentrations […] MIC were taken to be plated on nutrient agar and then cultured at 37° C. for 48-72 hours. The concentrations of the CFSs that no colonies grown on nutrient agar were determined to be the minimum bacterial concentration (MBCs).

Staphylococcus aureus = experiment: as above; type: cell-based; details: antibiotics; for MIC: 37 C 24 h, OD600; for MBC: plated on nutrient agar 48-72 h
Experimental: as §4, §5, §6, §7, §8, §9

Colony LP19 = experiment: Antibiotic susceptibility test; type: cell-based, Lactiplantibacillus Plantarum; details: Lactiplantibacillus plantarum, LP19, 24 h, read-out: Minimum inhibitory concentration of the antibiotic to LP19, 96-well, 37 C 24 h, OD600
From the text: (§10) To test bacterial susceptibility to antibiotics, such as Aminoglycosides antibiotics, Sulfonamide antibiotics, Quinolone antibiotics, Ampicillin, Cefotaxime, Chloramphenicol, Erythromycin, Rifampicin and Tetracycline, the experimental protocol were as follow. Further, the Quinolone antibiotics comprise Ciprofloxacin, the Aminoglycosides antibiotics comprise Kanamycin and […], and the Sulfonamide antibiotics comprise Sulfamethoxazole. […] The initial absorbance at 600 nm (OD600) of each well was recorded. Then, the 96-well plates were placed at 37° C. and cultured for 24 hours. Next, the OD600 of each well was measured again to determine minimum inhibitory concentration.

Colony LP1 = experiment: Antibiotic susceptibility test; type: cell-based, Lactiplantibacillus Plantarum; details: Lactiplantibacillus plantarum, LP1, 24 h, read-out: Minimum inhibitory concentration of the antibiotic to LP1, 96-well, 37 C 24 h, OD600
From the text: as §10

Colony LP2 = experiment: Antibiotic susceptibility test; type: cell-based, Lactiplantibacillus Plantarum; details: Lactiplantibacillus plantarum, LP2, 24 h, 96-well, 37 C 24 h, OD600; read-out: Minimum inhibitory concentration of the antibiotic to LP2
From the text: as §10

Colony LP5 = experiment: Antibiotic susceptibility test; type: cell-based, Lactiplantibacillus Plantarum; details: Lactiplantibacillus plantarum, LP5, 24 h, read-out: Minimum inhibitory concentration of the antibiotic to LP5, 96-well, 37 C 24 h, OD600
From the text: as §10

Colony PTA22 = experiment: Antibiotic susceptibility test; type: cell-based, Lactiplantibacillus Plantarum; details: Lactiplantibacillus plantarum, PTA22, 24 h, read-out: Minimum inhibitory concentration of the antibiotic to PTA22, 96-well, 37 C 24 h, OD600
From the text: as §10

L. pl 24-2L = details: from Georgieva et al., 2015; cited from earlier work
L. pl 24-5D = details: from Georgieva et al., 2015; cited from earlier work
L. plantarum 299 = details: from Klarin et al., 2019; cited from earlier work
L. plantarum 299v = details: from Klarin et al., 2019; cited from earlier work
species L. plantarum = details: EFSA (2005); cited from earlier work
Bacillus cereus [8] = experiment: Minimum inhibitory concentration and minimum bacterial concentration; type: cell-based; details: antibiotics
Experimental: as §4, §5, §6, §7, §8, §9

Escherichia coli (ETEC) [9] = experiment: as above; type: cell-based; details: antibiotics
Experimental: as §4, §5, §6, §7, §8, §9

Klebsiella pneumoniae [10] = experiment: as above; type: cell-based; details: antibiotics
Experimental: as §4, §5, §6, §7, §8, §9

Pseudomonas aeruginosa [11] = experiment: as above; type: cell-based; details: antibiotics
Experimental: as §4, §5, §6, §7, §8, §9

Streptococcus pneumoniae [12] = experiment: as above; type: cell-based; details: antibiotics
Experimental: as §4, §5, §6, §7, §8, §9

[13] = plated on nutrient agar 48-72 h

SMILES | MIC (Shigella sonnei [7]) | MBC (Shigella sonnei [7]) | MIC (Staphylococcus aureus) | MBC (Staphylococcus aureus) | MIC (Colony LP19) | MIC (Colony LP1) | MIC (Colony LP2) | MIC (Colony LP5) | MIC (Colony PTA22) | Minimum inhibitory concentration of the antibiotic to L. pl 24-2L (L. pl 24-2L) | Minimum inhibitory concentration of the antibiotic to L. pl 24-5D (L. pl 24-5D) | Minimum inhibitory concentration of the antibiotic to L. plantarum 299 (L. plantarum 299) | Minimum inhibitory concentration of the antibiotic to L. plantarum 299v (L. plantarum 299v) | EFSA, MIC breakpoints species L. plantarum (species L. plantarum) | other results
CC1(C)S[C@@H]2[C@H](NC(=O)[C@H](N)c3ccccc3)C(=O)N2[C@H]1C(=O)O [Ampicillin] | 8 µg/mL (≈ 22.9 µM) | 16 µg/mL (≈ 45.8 µM) | 0.5 µg/mL (≈ 1.43 µM) | 1 µg/mL (≈ 2.86 µM) | 0.25 µg/mL (≈ 0.715 µM) | 0.125 µg/mL (≈ 0.358 µM) | 0.25 µg/mL (≈ 0.715 µM) | 0.25 µg/mL (≈ 0.715 µM) | 0.5 µg/mL (≈ 1.43 µM) | 0.38 µg/mL | 1 µg/mL | 0.094 µg/mL | 0.094 µg/mL | 4 µg/mL | Inhibitory zone, Bacillus Cereus (Bacillus cereus [1]): 8 mm; Inhibitory zone, Escherichia coli (ETEC) (Escherichia coli (ETEC) [2]): 8 mm; Inhibitory zone, Klebsiella Pneumoniae (Klebsiella pneumoniae [3]): 8 mm; Inhibitory zone, Pseudomonas Aeruginosa (Pseudomonas aeruginosa [4]): 8 mm; Inhibitory zone, Salmonella Enterica (Salmonella enterica): 8 mm; Inhibitory zone, Shigella Sonnei (Shigella sonnei [5]): 12 mm; Inhibitory zone, Streptococcus Pneumoniae (Streptococcus pneumoniae [6]): 8 mm
CO/N=C(\C(=O)N[C@@H]1C(=O)N2C(C(=O)O)=C(COC(C)=O)CS[C@H]12)c1csc(N)n1 [Cefotaxime] | – | – | – | – | < 0.125 µg/mL | < 0.125 µg/mL | < 0.125 µg/mL | < 0.125 µg/mL | < 0.125 µg/mL | – | – | 0.094 µg/mL | 0.094 µg/mL | – | –
O=C(N[C@H](CO)[C@H](O)c1ccc([N+](=O)[O-])cc1)C(Cl)Cl [Chloramphenicol] | – | – | – | – | 16 µg/mL (≈ 49.5 µM) | 8 µg/mL (≈ 24.8 µM) | 8 µg/mL (≈ 24.8 µM) | 16 µg/mL (≈ 49.5 µM) | 32 µg/mL (≈ 99 µM) | 4 µg/mL | 6 µg/mL | 2 µg/mL | 2 µg/mL | 8 µg/mL | –
O=C(O)c1cn(C2CC2)c2cc(N3CCNCC3)c(F)cc2c1=O [Ciprofloxacin] | – | – | – | – | > 128 µg/mL | > 128 µg/mL | > 128 µg/mL | > 128 µg/mL | > 128 µg/mL | – | – | – | – | – | –
CCN1CCN(c2cc3c(cc2F)c(=O)c(C(=O)O)cn3C2CC2)CC1 [Enrofloxacin] | < 0.125 µg/mL | < 0.125 µg/mL | 1 µg/mL (≈ 2.78 µM) | 1 µg/mL (≈ 2.78 µM) | 64 µg/mL (≈ 178 µM) | 64 µg/mL (≈ 178 µM) | 64 µg/mL (≈ 178 µM) | 64 µg/mL (≈ 178 µM) | 64 µg/mL (≈ 178 µM) | – | – | – | – | – | MIC (Bacillus cereus [8]; 37 C 24 h, OD600): 8 µg/mL (≈ 22.3 µM); MBC (Bacillus cereus [8]; [13]): 8 µg/mL (≈ 22.3 µM); MIC (Escherichia coli (ETEC) [9]; 37 C 24 h, OD600): 4 µg/mL (≈ 11.1 µM); MBC (Escherichia coli (ETEC) [9]; [13]): 8 µg/mL (≈ 22.3 µM); MIC (Klebsiella pneumoniae [10]; 37 C 24 h, OD600): 32 µg/mL (≈ 89 µM); MBC (Klebsiella pneumoniae [10]; [13]): 32 µg/mL (≈ 89 µM); MIC (Pseudomonas aeruginosa [11]; 37 C 24 h, OD600): 16 µg/mL (≈ 44.5 µM); MBC (Pseudomonas aeruginosa [11]; [13]): 16 µg/mL (≈ 44.5 µM); MIC (Streptococcus pneumoniae [12]; 37 C 24 h, OD600): 0.25 µg/mL (≈ 0.696 µM); MBC (Streptococcus pneumoniae [12]; [13]): 0.5 µg/mL (≈ 1.39 µM)
